Data as given in patent US6215002A, “Pyrrolopyrrolone derivatives as inhibitors of neutrophil elastase” (priority 1996, dated 2001).
Counter-ions that a name gives are not always drawn.

Target: T1, human neutrophil elastase (Homo sapiens, UniProt P08246)
T1 sequence (P08246 30-267): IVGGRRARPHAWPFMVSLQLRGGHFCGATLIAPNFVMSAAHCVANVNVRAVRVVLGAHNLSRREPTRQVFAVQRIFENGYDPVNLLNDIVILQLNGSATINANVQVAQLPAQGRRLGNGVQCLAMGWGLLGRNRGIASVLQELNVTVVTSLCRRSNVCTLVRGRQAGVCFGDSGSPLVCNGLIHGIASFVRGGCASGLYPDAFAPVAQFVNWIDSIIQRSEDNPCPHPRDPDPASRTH
Experiment: In vitro assay of human neutrophil elastase (HNE)
Assay type: biochemical
Details: 118 nM purified human neutrophil elastase, pH 8.6, 15 min incubation at 30° C., MeO-succinyl-alanyl-alanyl-prolyl-valyl-p-nitroanilide substrate; read-out: HNE IC50
Procedure, shortened: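 Residual activity was taken as the 10 min rate of absorbance rise at 405 nm after adding 0.6 mM MeO-succinyl-AAPV-p-nitroanilide. Curve fitting of activity against concentration gave IC50.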

| SMILES | IC50 [nM] |
| --- | --- |
| CCC[C@H]1C(=O)N(S(C)(=O)=O)[C@H]2CCN(C(=O)/C=C/C(=O)O)[C@H]12 (relative stereo) [Example 129, rel-4-(4-Methanesulfonyl-5-oxo-6R-propyl-hexahydro-(3aS,6aR)-pyrrolo[3,2-b]pyrrol-1-yl)-oxo-but-2-E-enoic acid] | 14 |
| CCC[C@H]1C(=O)N(S(C)(=O)=O)[C@H]2CCN(C(=O)c3ccco3)[C@H]12 (relative stereo) [Example 231, rel-(3R,3aR,6aS)-4-(Furan-2-carbonyl)-1-methanesulfonyl-3-propyl-hexahydro-pyrrolo[3,2-b]pyrrol-2-one] | 35 |
| CCC[C@H]1C(=O)N(S(=O)(=O)c2ccc(C#N)cc2)[C@H]2CCN(C(=O)CCCCCN3CCCCC3)[C@H]12 (relative stereo) [Example 205, rel-4-[2-Oxo-4-(6-piperidin-1-yl-hexanoyl)-3R-propyl-hexahydro-(3aR,6aS)-pyrrolo[3,2-b]pyrrole-1-sulfonyl]-benzonitrile DL-tartrate] | 28 |
| CCC[C@H]1C(=O)N(S(C)(=O)=O)[C@H]2CCN(C(=O)CCCCCCCCCN3CCCC3)[C@H]12 (relative stereo) [Example 71, rel-(3R,3aR,6aS)-1-Methanesulfonyl-3-propyl-4-(10-pyrrolidin-1-yl-decanoyl)-hexahydro-pyrrolo[3,2-b]pyrrol-2-one hydrochloride] | 35 |
| CCC[C@H]1C(=O)N(S(C)(=O)=O)[C@H]2CCN(C(=O)CCCN(CC)CC)[C@H]12 (relative stereo) [Example 83, rel-(3R,3aR,6aS)-4-(4-Diethylamino-butyryl)-1-methanesulfonyl-3-propyl-hexahydro-pyrrolo[3,2-b]pyrrol-2-one DL-tartrate] | 198 |
| CCC[C@@H]1C(=O)N(S(=O)(=O)c2ccc3ccccc3c2)[C@@H]2CCN(C(=O)CCN3CCCCC3)[C@@H]12 [Example 54, (3S,3aS,6aR)-1-(Naphthalene-2-sulfonyl)-4-(3-piperidin-1-yl-propionyl)-3-propyl-hexahydro-pyrrolo[3,2-b]pyrrol-2-one hydrochloride] | 120 |
| CCC[C@H]1C(=O)N(S(C)(=O)=O)[C@H]2CCN(S(=O)(=O)c3ccc(C(=O)NCCN4CCCCC4)cc3)[C@H]12 (relative stereo) [Example 121, rel-4-(4-Methanesulfonyl-5-oxo-6R-propyl-hexahydro-(3aS,6aR)-pyrrolo[3,2-b]pyrrole-1-sulfonyl)-N-(2-piperidin-1-yl-ethyl)-benzamide hydrochloride] | 14 |
| CCC[C@H]1C(=O)N(S(=O)(=O)c2ccc(N)cc2)[C@H]2CCN(C(=O)CCCCCN3CCCCC3)[C@H]12 (relative stereo) [Example 209, rel-(3R,3aR,6aS)-1-(4-Amino-benzenesulfonyl)-4-(6-piperidin-1-yl-hexanoyl)-3-propyl-hexahydro-pyrrolo[3,2-b]pyrrol-2-one DL-tartrate] | 71 |
| CCC[C@H]1C(=O)N(S(C)(=O)=O)[C@H]2CCN(C(=O)c3cccs3)[C@H]12 (relative stereo) [Example 232, rel-(3R,3aR,6aS)-1-Methanesulfonyl-3-propyl-4-(thiophene-2-carbonyl)-hexahydro-pyrrolo[3,2-b]pyrrol-2-one] | 78 |
| C=CC[C@H]1C(=O)N(S(=O)(=O)c2cccc3c(N(C)C)cccc23)[C@H]2CCN(C(=O)OCc3ccccc3)[C@H]12 (relative stereo) [Example 18, rel-(3aS,6R,6aR)-6-Allyl-4-(5-dimethylamino-naphthalene-1-sulfonyl)-5-oxo-hexahydro-pyrrolo[3,2-b]pyrrole-1-carboxylic acid benzyl ester] | 69 |
| CCC[C@H]1C(=O)N(S(C)(=O)=O)[C@H]2CCN(S(=O)(=O)c3ccc(C(=O)N4CCCCC4)cc3)[C@H]12 (relative stereo) [Example 119, rel-(3R,3aR,6aS)-1-Methanesulfonyl-4-[4-(piperidine-1-carbonyl)-benzenesulfonyl]-3-propyl-hexahydro-pyrrolo[3,2-b]pyrrol-2-one] | 34 |
| CCC[C@H]1C(=O)N(S(C)(=O)=O)[C@H]2CCN(S(=O)(=O)c3ccc([N+](=O)[O-])cc3)[C@H]12 (relative stereo) [Example 211, rel-(3R,3aR,6aS)-1-Methanesulfonyl-4-(4-nitro-benzenesulfonyl)-3-propyl-hexahydro-pyrrolo[3,2-b]pyrrol-2-one] | 140 |
| CCC[C@H]1C(=O)N(S(C)(=O)=O)[C@H]2CCN(C(=O)CCCN3CCCC3)[C@H]12 (relative stereo) [Example 89, rel-(3R,3aR,6aS)-1-Methanesulfonyl-3-propyl-4-(4-pyrrolidin-1-yl-butyryl)-hexahydro-pyrrolo[3,2-b]pyrrol-2-one hydrochloride] | 183 |

Next, values leading:

| IC50 [nM] | SMILES |
| --- | --- |
| 9 | CCC[C@H]1C(=O)N(S(=O)(=O)c2ccc3ccccc3c2)[C@H]2CCN(C(C)=O)[C@H]12 (relative stereo) [Example 24, rel-(3R,3aR,6aS)-4-Acetyl-1-(naphthalene-2-sulfonyl)-3-propyl-hexahydro-pyrrolo[3,2-b][pyrrol-2-one] |
| 38 | CCC[C@H]1C(=O)N(S(=O)(=O)c2ccc(C(F)(F)F)cc2)[C@H]2CCN(C(=O)CCCCCN3CCCCC3)[C@H]12 (relative stereo) [Example 202, rel-(3R,3aR,6aS)-4-(6-Piperidin-1-yl-hexanoyl)-3-propyl-1-(4-trifluoromethyl-benzenesulfonyl)-hexahydro-pyrrolo[3,2-b]pyrrol-2-one DL-tartrate] |
| 153 | CC(C)[C@H]1C(=O)N(S(C)(=O)=O)[C@H]2CCN(S(=O)(=O)c3ccc(CN(C)C)cc3)[C@H]12 (relative stereo) [Example 197, rel-(3R,3aR,6aS)-4-(4-Dimethylaminomethyl-benzenesulfonyl)-3-isopropyl-1-methanesulfonyl-hexahydro-pyrrolo[3,2-b]pyrrol-2-one hydrochloride] |
| 13 | CCC[C@H]1C(=O)N(S(C)(=O)=O)[C@H]2CCN(S(=O)(=O)c3ccc(C(=O)NC4CC4)cc3)[C@H]12 (relative stereo) [Example 125, rel-N-Cyclopropyl-4-(4-methanesulfonyl-5-oxo-6R-propyl-hexahydro-(3aS,6aR)-pyrrolo[3,2-b]pyrrole-1-sulfonyl)-benzamide] |
| 136 | CCC[C@H]1C(=O)N(S(C)(=O)=O)[C@H]2CCN(C(=O)CNC)[C@H]12 (relative stereo) [Example 110, rel-(3R,3aR,6aS)-1-Methanesulfonyl-4-methylaminoacetyl-3-propyl-hexahydro-pyrrolo[3,2-b]pyrrol-2-one trifluoroacetate] |
| 41 | CCC[C@H]1C(=O)N(S(C)(=O)=O)[C@H]2CCN(C(=O)CCCCCCCCCN3CCCCC3)[C@H]12 (relative stereo) [Example 70, rel-(3R,3aR,6aS)-1-Methanesulfonyl-4-(10-piperidin-1-yl-decanoyl)-3-propyl-hexahydro-pyrrolo[3,2-b]pyrrol-2-one DL-tartrate] |
| 491 | C=CC[C@H]1C(=O)N(S(=O)(=O)Cc2ccccc2)[C@H]2CCN(C(=O)OCc3ccccc3)[C@H]12 (relative stereo) [Example 21, rel-3aS,6R,6aR)-6-Allyl-5-oxo-4-phenylmethanesylfonyl-hexahydro-pyrrolo[3,2-b]pyrrole-1-carboxylic acid benzyl ester] |
| 417 | CCC[C@H]1C(=O)N(S(C)(=O)=O)[C@H]2CCN(C(=O)CCN3CCCCC3)[C@H]12 [Example 116, (3R,3aR,6aS)-1-Methanesulfonyl-4-(3-piperidin-1-yl-propionyl)-3-propyl-hexahydro-pyrrolo[3,2-b]pyrrol-2-one hydrochloride] |
| 144 | CC(C)[C@H]1C(=O)N(S(C)(=O)=O)[C@H]2CCN(C(=O)CCCC3CCNCC3)[C@H]12 (relative stereo) [Example 255, rel-(3R,3aR,6aS)-3-Isopropyl-1-methanesulfonyl-4-(4-piperidin-4-yl-butyryl)-hexahydro-pyrrolo[3,2-b]pyrrol-2-one hydrochloride] |
| 580 | CCC[C@H]1C(=O)N(S(C)(=O)=O)[C@H]2CCN(C(=O)C3CCCN3C)[C@H]12 (relative stereo) [Example 111, rel-(3R,3aR,6aS)-1-Methanesulfonyl-4-(1-methyl-pyrrolidine-2-carbonyl)-3-propyl-hexahydro-pyrrolo[3,2-b]pyrrol-2-one] |
| 54 | CCC[C@H]1C(=O)N(S(=O)(=O)c2ccccc2)[C@H]2CCN(S(=O)(=O)CCCN3CCCCC3)[C@H]12 (relative stereo) [Example 208, rel-(3R,3aR,6aS)-1-Benzenesulfonyl-4-(3-piperidin-1-yl-propane-1-sulfonyl)-3-propyl-hexahydro-pyrrolo[3,2-b]pyrrol-2-one DL-tartrate] |
| 410 | CCC[C@H]1C(=O)N(S(C)(=O)=O)[C@H]2CCN(S(=O)(=O)c3cc(C(F)(F)F)cc(C(F)(F)F)c3)[C@H]12 (relative stereo) [Example 224, rel-(3R,3aR,6aS)-4-(3,5-Bis-trifluoromethyl-benzenesulfonyl)-1-methanesulfonyl-3-propyl-hexahydro-pyrrolo[3,2-b]pyrrol-2-one] |
| 96 | CCC[C@H]1C(=O)N(S(C)(=O)=O)[C@H]2CCN(C(=O)CN)[C@H]12 (relative stereo) [Example 109, rel-(3R,3aR,6aS)-4-Aminoacetyl-1-methanesulfonyl-3-propyl-hexahydro-pyrrolo[3,2-b]pyrrol-2-one trifluoroacetate] |
| 202 | CCC[C@H]1C(=O)N(S(C)(=O)=O)[C@H]2CCN(C(=O)CCN3CCC3)[C@H]12 (relative stereo) [Example 97, rel-(3R,3aR,6aS)-4-(3-Azetidin-1-yl-propionyl)-1-methanesulfonyl-3-propyl-hexahydro-pyrrolo[3,2-b]pyrrol-2-one hydrochloride] |
